Experimental data taken from PubChem BioAssay (NCI).
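A five-concentration, 48-hour dose response in 96-well plates underlies each endpoint, interpolated linearly between surrounding concentrations. Abbreviation: GI50, concentration required for 50% inhibition of growth. TGI: concentration producing complete growth inhibition.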

How the values were obtained:
Experiment in all cases: inhibition of tumour cell growth, NCI panel, 48 h
A549 NSCLC = test system: A549 NSCLC
SF-268 CNS = test system: SF-268 CNS
CCRF-CEM leukemia = test system: CCRF-CEM leukemia
RXF 393 renal = test system: RXF 393 renal
HOP-62 NSCLC = test system: HOP-62 NSCLC
ACHN renal = test system: ACHN renal
BT-549 breast = test system: BT-549 breast
SK-MEL-2 melanoma = test system: SK-MEL-2 melanoma
HCT-15 colon = test system: HCT-15 colon
HOP-92 NSCLC = test system: HOP-92 NSCLC

SMILES	GI50 (A549 NSCLC) [µM]	TGI (A549 NSCLC) [µM]	GI50 (SF-268 CNS) [µM]	TGI (SF-268 CNS) [µM]	GI50 (CCRF-CEM leukemia) [µM]	TGI (CCRF-CEM leukemia) [µM]	GI50 (RXF 393 renal) [µM]	TGI (RXF 393 renal) [µM]	GI50 (HOP-62 NSCLC) [µM]	TGI (HOP-62 NSCLC) [µM]	GI50 (ACHN renal) [µM]	TGI (ACHN renal) [µM]	TGI (BT-549 breast) [µM]	GI50 (SK-MEL-2 melanoma) [µM]	TGI (SK-MEL-2 melanoma) [µM]	GI50 (HCT-15 colon) [µM]	TGI (HCT-15 colon) [µM]	GI50 (HOP-92 NSCLC) [µM]	TGI (HOP-92 NSCLC) [µM]	GI50 (BT-549 breast) [µM]
O=C(Nc1ccc2[nH]nc(-c3ccncc3)c2c1)[C@@H]1CCN(CC(=O)N2CCN(c3ccc(-c4ncccn4)cc3)CC2)C1	5.09	> 100	> 69.7	> 100	5.49	> 100	2.84	> 100	0.281	> 100	2.08	> 100	> 100	0.0269	0.223	7.79	> 100	0.105	1.81	–
CC1=CC(=O)C2=C(C)CCC3C(C)C(=O)OC3C12 (configuration not stated)	–	> 100	–	> 100	–	> 100	–	> 100	–	> 100	–	> 100	> 100	–	> 100	–	> 100	–	> 100	–
CC(C)C1=CC(=O)C(C)(C2C(O)CC3(C)C4CC=C5C(CCC(OC6OC(CO)C(O)C(O)C6OC6OC(C)C(O)C(O)C6O)C5(C)C)C4(C)C(=O)CC23C)O1 (configuration not stated)	–	> 100	–	> 100	–	> 100	–	> 100	–	> 100	–	> 100	> 100	–	–	–	> 100	–	> 100	–
O=c1[nH]c2ccccc2c2ccccc12	> 100	> 100	> 100	> 100	> 100	> 100	> 100	> 100	> 100	> 100	> 100	> 100	> 100	> 100	> 100	> 100	> 100	39.8	> 100	> 100
CC(N)C(Cc1ccc(Cl)cc1)c1ccc(Cl)cc1 (configuration not stated)	14	29.4	11.4	26.5	20.3	39	11.7	25.5	13.1	28.4	4.85	18.5	28.1	13	27	4.15	17.5	5.59	19.9	13.7
Cc1cccc(N(C)C(=O)[C@@H]2[C@H](O)CCN2c2nc(C)cc(C(F)(F)F)c2C#N)c1	21.9	> 100	26.5	> 100	25.8	> 100	14.6	40.1	25.8	> 100	18.3	41.9	45.2	15.9	35	27.9	> 100	11	53.1	15.6
O=Nc1ccc(O)c(=O)cc1	12.3	68.9	3.43	10.6	0.264	1.19	0.572	1.59	7.45	23.2	0.906	2.63	8.75	2.61	5.89	2.37	9.62	0.998	3.39	2.86
COc1ccc2c(c1)/C(=C\c1c(-c3cc(OC)ccc3OC)nc3sc(C)cn13)C(=O)N2C	38.6	> 100	28.6	> 100	12.1	> 100	> 100	> 100	26.3	> 100	28.2	> 100	> 100	17.3	38.5	33.9	> 100	4.33	37.6	32.3
O=C(CC(Cl)=C(Cl)Cl)Nc1ccccc1	> 100	> 100	> 100	> 100	> 100	> 100	> 100	> 100	> 100	> 100	> 100	> 100	> 100	> 100	> 100	> 100	> 100	–	> 100	> 100
O=C(Cc1ccc(/C=C/C(=O)c2ncc[nH]2)cc1)Nc1ccc(F)cc1	6.94	> 33.3	5.1	26.3	1.68	> 33.3	3.44	8.92	2.64	12.7	4.82	9.62	11.3	7.47	19	1.15	7.37	9.11	30.5	2.73
NS(=O)(=O)c1ccc(Nc2cc(-c3cccc(O)c3)[nH]n2)cc1	> 25	> 25	> 25	> 25	8.04	> 25	> 25	> 25	> 25	> 25	> 25	> 25	> 25	> 25	> 25	> 25	> 25	10.2	> 25	> 24.1
Fc1cccc(COc2ccc(Nc3ncnc4sc(-c5cccs5)cc34)cc2Cl)c1	9.32	> 25	11.4	> 22.8	> 25	> 25	4.37	12	4.88	9.86	3.24	7.24	15.6	2.46	8.83	9.11	> 25	3.3	10.2	6.25
CS(=O)(=O)Nc1cncc(-c2ccc3ncnc(Nc4ccc(F)c(Cl)c4)c3c2)c1	3.75	17.4	2.63	18.7	1.38	13	1.49	5.87	2.51	20.2	1.69	> 100	7.98	1.5	3.79	3.66	16	0.369	4.82	1.9
Cc1nc2ccc(Nc3nc(Cl)nc(N4CCOCC4)n3)cc2n1Cc1ccccc1	50.3	> 100	3.11	> 100	2.93	> 100	1.85	3.58	16.2	> 100	9.35	28.7	29.4	3.54	26	2.94	14.1	2.07	6.36	2.89
CC(=O)Nc1ccc2c(c1)C(c1ccccc1Cl)=Nc1c(n[nH]c1C)N2	4.46	> 25	3.01	> 21.4	12.2	> 25	1.02	9.59	5.74	> 25	6.19	> 25	> 25	> 25	> 25	10.8	> 25	1.41	16.4	6.58
CCN1C(=S)N(c2ccccc2)C2NC(=S)N(/N=C/C=C/c3ccccc3OC)C21 (configuration not stated)	0.607	> 100	0.706	> 91	0.362	> 100	0.189	0.65	0.487	> 100	0.556	> 100	–	0.612	> 100	0.344	> 100	3.98	> 100	0.954
CCSCC1CC(O)(c2ccccc2)CC(c2ccc(F)cc2)O1 (configuration not stated)	2.74	11	2.41	6.11	1.86	5.91	1.68	3.47	1.75	3.29	2.37	6.56	3.45	1.79	3.53	2.11	5.49	1.25	2.72	1.6
Cc1nc([P+](c2ccccc2)(c2ccccc2)c2ccccc2)c(Sc2sc(-c3ccccc3)nc2[P+](c2ccccc2)(c2ccccc2)c2ccccc2)o1	1.87	10.7	2.02	7.71	0.959	9.4	1.78	5.26	2.08	13.2	1.65	4.92	6.24	2.15	4.92	2.15	7.68	0.759	3.73	1.28
CC(=O)c1ccc2c(c1)c1cc(C(C)=O)ccc1n2CCNC(C)C	0.433	4.31	0.417	3.33	0.455	2.65	0.289	1.79	0.717	4.63	–	–	3.97	0.569	2.23	0.352	3.82	0.764	4.27	1.29
OCCN1CCN(CCCN2c3ccccc3Sc3ccc(Cl)cc32)CC1	3.68	15.2	2.79	10.7	2.2	6.24	1.96	7.68	3.02	12.7	3.8	13.6	16.6	2.03	4.04	2.39	6.13	1.37	6.72	4.49
Fc1cc2[nH]ncc2c2c3c(c(-c4cn[nH]c4C(F)(F)F)nc12)CCCC3	2.06	> 100	1.97	5.86	1.89	> 100	1.08	2.39	1.65	6.19	0.947	7.58	2.96	2.07	5.67	2.79	15.2	–	–	1.38
CCOC(=O)c1cc(C(=O)c2cc(OC)c(OC)c(OC)c2)n2ncccc12	0.621	> 100	3.02	> 100	0.297	> 100	0.215	1.84	0.63	> 75.6	1.34	> 100	> 100	0.466	> 100	0.251	> 100	48.5	> 100	0.761
CCN1C/C(=C\c2cc(OC)c(OC)cc2OC)C(=O)/C(=C/c2cc(OC)c(OC)cc2OC)C1	3.67	> 100	–	–	2.96	> 100	2.32	7.38	3.45	10.4	2.08	4.45	8.72	2.29	7.87	2.96	11.3	2.46	17.8	2.87
COc1cc(/C=C\c2cc(OC)c(OC)c(OC)c2)cc(N/C=C\C(=O)c2ccc(OC(F)(F)F)cc2)c1OC	4.54	> 100	8.9	> 100	3.55	> 100	2.18	7.17	7.85	> 100	5.56	> 100	> 100	–	–	3.42	> 100	12.6	> 100	5.9
COc1ccc(C2CC(c3cccc(Nc4ccnc5cc(Cl)ccc45)c3)=NN2C=O)cc1 (configuration not stated)	0.527	18.3	1.37	> 100	0.434	–	0.883	7.39	0.747	27.6	0.867	> 100	9.86	0.457	6.41	0.541	> 100	> 100	> 100	0.486
COC(=O)c1n[nH]c(C)c1N=NN(C)CCC#N	–	> 100	–	50	–	41.5	–	29.7	–	37	–	25.4	28.6	–	61.9	–	32.1	–	35	–
